Assay results reported in US20080145465A1, “Sesquiterpene lactone extract from artemisia leucodes for reducing inflammation and down-regulating pro-inflammatory gene expression” (priority 2006, published 2008).
Values after ≈ are worked out from the molar mass of the structure shown. “Also recorded” adds a separate entry of the source. Read-outs that look alike come from different tables or passages of the source.

Key:
COX-2 [1] = target: T1, COX-2 (Ovis aries, UniProt P79208); test: Colorimetric COX inhibitor screening assay, COX-2; type: biochemical, ovine
T1 construct: purchased Cayman Chemical Company
T1 sequence (P79208 17-603): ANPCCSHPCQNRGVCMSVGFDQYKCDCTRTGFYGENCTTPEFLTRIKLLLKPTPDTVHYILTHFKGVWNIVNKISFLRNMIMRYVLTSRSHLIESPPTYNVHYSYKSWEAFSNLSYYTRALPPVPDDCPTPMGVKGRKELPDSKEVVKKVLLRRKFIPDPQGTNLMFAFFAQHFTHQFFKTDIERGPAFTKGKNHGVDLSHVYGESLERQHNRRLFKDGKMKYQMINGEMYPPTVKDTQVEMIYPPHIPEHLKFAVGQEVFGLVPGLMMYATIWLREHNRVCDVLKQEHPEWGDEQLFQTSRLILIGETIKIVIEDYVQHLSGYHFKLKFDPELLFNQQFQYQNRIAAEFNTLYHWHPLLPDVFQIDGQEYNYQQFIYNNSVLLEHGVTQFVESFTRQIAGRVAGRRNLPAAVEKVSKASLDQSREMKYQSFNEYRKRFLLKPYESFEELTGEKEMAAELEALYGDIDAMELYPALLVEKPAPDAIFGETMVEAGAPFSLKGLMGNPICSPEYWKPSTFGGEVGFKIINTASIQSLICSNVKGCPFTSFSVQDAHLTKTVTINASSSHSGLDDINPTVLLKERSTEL
Procedure: An ovine COX inhibitor screening assay (Cayman Chemical Company, Ann Arbor, Mich.) was used to measure inhibition of purified COX-1 and COX-2. This assay measures the peroxidase component of cyclooxygenases colorimetrically by monitoring the appearance of oxidized N,N,N′,N′-tetramethyl-p-phenylenediamine (TMPD) at 590 nm. Tablets of Vioxx (rofecoxib; Merck & Co., Inc., Whitehouse Station, N.J.) were ground and dissolved in methanol (1 mg/mL) to use as a positive control. AL-1, leukomisin, and austricin were also dissolved in methanol at 1 mg/mL. The assay was performed following manufacturer instructions. Vioxx, vehicle (100% initial activity), or treatments were added to a 96-well plate along with 180 μL assay mixture provided by the manufacturer containing 150 μL assay buffer, 10 μL heme, and 10 μL enzyme (COX-1 or COX-2). A background correction row received no enzyme and 10 μL additional assay buffer. After 5 min incubation at room temp, 20 μL of a colorimetric substrate solution containing TMPD and 20 μL arachadonic acid diluted in assay buffer were added to the plate. The plate was incubated for 5 min and the absorbance was read at 590 nm using a microplate reader (Molecular Devices, Sunnyvale, Calif.). To calculate percent inhibition, average absorbance was calculated for each sample (n=3). The background blank well absorbance was subtracted from each sample.
[(100% Initial activity-Blank)−(Treatment-Blank)/(100% Initial activity-Blank)]*100

COX-2 [2] = test: Quantitative real-time RT-PCR: COX-2 gene expression in LPS-elicited RAW 264.7 macrophages; type: cell-based, murine; conditions: for COX-2 gene expression (LPS control = 100; values less than 100 represent inhibition): Table 4 experiment
Procedure: (§1) RAW 264.7 murine monocyte/macrophages (ATCC TIB-71) were maintained in Dulbecco's Modified Eagle Medium (D-MEM, Invitrogen Corp., Carlsbad, Calif.) supplemented with 10% fetal bovine serum (FBS, Invitrogen Corp., Carlsbad, Calif.) and 1% streptomycin and were kept in a humidified 37° C. incubator with 5% CO2. Cells were subcultured by scraping when plates reached 90% confluency with a 1:5 ratio.
(§2) Murine RAW macrophages 264.7 were plated at a density of 0.4×10^6 cells per well in 24-well plates 12 hours prior to treatment. A stock solution of AL-1 was created by completely dissolving the dry extract as in Example 1 in 95% ethanol. Two hours before elicitation with lipopolysaccharide (LPS, 1 μg/ml, Sigma, St. Louis, Mo.) the cells were treated with various concentrations of AL-1 (25-200 μg/ml) or vehicle control, maintaining a final concentration of 0.5% ethanol for all treatments. After six hours of treatment, RNA was extracted from cells using TRIzol® reagent (Invitrogen Corp., Carlsbad, Calif.) according to the manufacturer instructions. RNAs were quantified spectrophotometrically at 260 nm and stored at −80° C. until real-time PCR could be performed.
(§3) RNA was purified by treating with DnaseI (Invitrogen Corp., Carlsbad, Calif.) before performing reverse transcription with Stratascript Reverse Transcriptase, an RNA dependent DNA polymerase (Stratagene, La Jolla, Calif.) according to the manufacturer instructions. The cDNAs obtained were then amplified by real-time PCR. Expression of COX-2, iNOS, IL1β and β-actin gene expression levels was quantified using a Stratagene Mx 3000P™ Real-Time PCR System (Stratagene, La Jolla, Calif.). Primers for each gene were designed using Primer Express® version 2.0 software (Applied Biosystems, Foster City, Calif.; Table 2) (Giulietti et al., 2001; Overbergh et al., 2003).
(§4) Real-time PCR analyses were carried out using a Brilliant® SYBR® Green PCR master mix kit (Stratagene, La Jolla, Calif.) according to kit instructions. Samples were amplified using the following program: two minutes incubation at 50° C.; initial denaturation and polymerase activation at 95° C. for ten minutes; 40 PCR cycles consisting of 15 seconds at 95° C. and 60 seconds at 60° C. each. The RNA expression of the target genes were analyzed by ΔΔCT methods (Winer et al., 1999) using β-Actin gene as normalizer. The ΔΔCT values obtained from these analyses directly reflect the relative mRNA quantities for the marker gene in response to specific treatments. Lower ΔΔCT values indicate greater anti-inflammatory activity. The changes in gene expression as reflected by ΔΔCT values can also be expressed as percentage genetic inhibition [(1−ΔΔCT)×100] indicating anti-inflammatory properties of the test compounds. Amplification of specific transcripts was further confirmed by obtaining melting curve profiles. All samples were run in duplicate; four independent analyses were performed.

iNOS = test: Quantitative real-time RT-PCR: iNOS gene expression in LPS-elicited RAW 264.7 macrophages; type: cell-based, murine; conditions: for iNOS gene expression (LPS control = 100; values less than 100 represent inhibition): Table 4 experiment
Procedure: as §1, §2, §3, §4

IL1β = test: Quantitative real-time RT-PCR: IL1β gene expression in LPS-elicited RAW 264.7 macrophages; type: cell-based, murine; conditions: for IL1β gene expression (LPS control = 100; values less than 100 represent inhibition): Table 4 experiment; for effect on IL1β gene expression (in words): LPS-elicited RAW macrophages
Procedure: as §1, §2, §3, §4

[3] = read-out: percent inhibition of COX-2 enzyme activity, mean ± SE

SMILES	COX-2 gene expression (LPS control = 100; values less than 100 represent inhibition) (COX-2 [2]; 25 μg)	COX-2 gene expression (LPS control = 100; values less than 100 represent inhibition) (COX-2 [2]; 50 μg)	COX-2 gene expression (LPS control = 100; values less than 100 represent inhibition) (COX-2 [2]; 75 μg)	iNOS gene expression (LPS control = 100; values less than 100 represent inhibition) (iNOS; 25 μg)	iNOS gene expression (LPS control = 100; values less than 100 represent inhibition) (iNOS; 50 μg)	iNOS gene expression (LPS control = 100; values less than 100 represent inhibition) (iNOS; 75 μg)	IL1β gene expression (LPS control = 100; values less than 100 represent inhibition) (IL1β; 25 μg)	IL1β gene expression (LPS control = 100; values less than 100 represent inhibition) (IL1β; 50 μg)	IL1β gene expression (LPS control = 100; values less than 100 represent inhibition) (IL1β; 75 μg)	effect on IL1β gene expression (in words) (IL1β)	further results
CC1=CC(=O)C2=C(C)C[C@H](O)[C@@H]3[C@H](OC(=O)[C@H]3C)[C@@H]12 (single isomer, unassigned) [austricin]	120	116	102	102	108	113	58	65	65	only marginal activity	IC50 (COX-2 [1]; IC50, COX-2 inhibition, purified ovine COX-2): 1970 µM; IC50 (COX-2 [1]; IC50, COX-2 inhibition, purified ovine COX-2, molar value in brackets): 2000 µM; inhibition at 45 µg/mL (COX-2 [1]; [3]): 19 ± 1%; inhibition at 115 µg/mL (COX-2 [1]; [3]): 29 ± 2%; inhibition at 225 µg/mL (COX-2 [1]; [3]): 31 ± 1%
CC1=CC(=O)C2=C(C)CC[C@@H]3[C@H](OC(=O)[C@H]3C)[C@@H]12 [leukomisin]	140	165	159	127	151	126	110	161	281	no affect on gene expression; also recorded: no activity	percent inhibition of COX-2 enzyme activity, mean ± SE (COX-2 [1]; 45 μg/ml): 34 ± 1%; percent inhibition of COX-2 enzyme activity, mean ± SE (COX-2 [1]; 115 μg/ml): 51 ± 3%; percent inhibition of COX-2 enzyme activity, mean ± SE (COX-2 [1]; 225 μg/ml): 65 ± 5%; IC50, COX-2 inhibition (COX-2 [1]; purified ovine COX-2): 129 µg/mL (≈ 524 µM); IC50 (COX-2 [1]; purified ovine COX-2, read-out: IC50, COX-2 inhibition): 524 µM; effect on COX-2 gene expression (in words) (COX-2 [2]; LPS-elicited RAW macrophages): no affect on gene expression; also recorded: no activity; effect on iNOS gene expression (in words) (iNOS; LPS-elicited RAW macrophages): no affect on gene expression; also recorded: no activity
